Experimental data: PubChem BioAssay AID1417 (Emory University Molecular Libraries Screening Center, 2008)

The molecules below were run against Induced myeloid leukemia cell differentiation protein Mcl-1 (Homo sapiens) (UniProt Q07820) (assay: Mcl-1 Noxa peptide disruption concentration-response – biochemical, TR-FRET, dose response (AID 1417)). Conditions: Mcl-1/Noxa peptide interaction, cell-free TR-FRET (terbium/rhodamine), 2 h; measured here: absolute IC50.
Chain of Induced myeloid leukemia cell differentiation protein Mcl-1 (Homo sapiens) (Q07820 whole entry, looked up): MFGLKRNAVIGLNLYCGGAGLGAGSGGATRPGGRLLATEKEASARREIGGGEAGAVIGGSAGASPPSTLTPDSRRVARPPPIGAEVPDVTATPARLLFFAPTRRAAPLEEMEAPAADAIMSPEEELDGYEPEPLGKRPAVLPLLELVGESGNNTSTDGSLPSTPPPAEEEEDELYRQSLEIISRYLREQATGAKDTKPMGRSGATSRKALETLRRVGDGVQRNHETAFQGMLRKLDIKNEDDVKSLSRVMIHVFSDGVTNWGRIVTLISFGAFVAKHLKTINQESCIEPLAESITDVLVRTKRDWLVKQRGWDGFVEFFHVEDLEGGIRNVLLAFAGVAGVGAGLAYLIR
`Cc1ccc(-n2nc3cc(C)c(N)cc3n2)cc1` was tested, and the IC50 was less than 0.4 µM. `CCOC(=O)c1ccc2c(c1)C1C=CCC1C(C(=O)O)N2` (stereo not drawn) gave an IC50 of less than 0.4 µM. In the case of `COc1cc(C(=O)Nc2ccc(N(C)C)cc2)cc(OC)c1OC`, the IC50 is reported as greater than 54 µM. In the case of `Cc1cccc(C)c1NC(=O)CSc1nnc(-c2ccco2)c(-c2ccco2)n1`, the IC50 is reported as 1.93 µM. `Cc1cc2nc(-c3ccc(SCc4ccc(C(=O)O)cc4)nc3)[nH]c2cc1C` showed an IC50 of less than 0.4 µM. For `CCOC(=O)c1c(-c2ccc(C)cc2)csc1NC(=O)/C(C#N)=C/c1ccc(O)c(OC)c1`, the IC50 was less than 0.4 µM. For `CCc1ccc2nc3sc(C(=O)Nc4nnc(CC)s4)c(N)c3cc2c1`, the IC50 was greater than 54 µM. For `O=C(Nc1ccc(Cl)cc1)N1CCc2[nH]c3ccccc3c2C1`, the IC50 was greater than 54 µM. With `Cc1ccc(NC(=O)c2cc(N3C(=O)C=CC3=O)ccc2Cl)cc1C` the IC50 was less than 0.4 µM. For `Cc1ccc(-c2ccc(/C=C3/NC(=O)NC3=O)o2)cc1[N+](=O)[O-]`, the IC50 was 6.44 µM. `Cn1c(=O)c(C(=O)COC(=O)c2cc(-c3ccco3)nc3ccccc23)c(N)n(CC2CC2)c1=O` gave an IC50 of 0.449 µM. Work on `O=C(NCCCCc1ccccc1)C1CC(c2ccccc2[N+](=O)[O-])=NO1` (stereo not drawn) yielded an IC50 greater than 54 µM. Work on `Cc1ccc(-c2c3c([nH]c(=S)c2C#N)CCCC3)o1` yielded an IC50 of 1.17 µM. For `O=C(Nc1ccc(S(=O)(=O)Nc2nccs2)cc1)c1cc(-c2ccncc2)nc2ccccc12`, the IC50 was less than 0.4 µM. For `CCOc1cc(CNc2ccc(N3CCCC3)cc2)cc(Cl)c1OC`, the IC50 was greater than 54 µM. `NS(=O)(=O)c1ccc(NC(=S)NC(=O)/C=C/c2ccco2)cc1` showed an IC50 of 6.75 µM. Work on `C=CCN1C(=O)/C(=C2/C(=O)N(CC(=O)O)c3ccccc32)S/C1=N/c1nccs1` yielded an IC50 of less than 0.4 µM. `Nc1nc(=S)c2ncn(C3OC(CO)C(O)C3O)c2[nH]1` (stereo not drawn) gave an IC50 of 9.52 µM. Molecule `COc1ccc(-c2csc(NC(=O)CSc3nc(C)nc4sc(C(=O)O)c(C)c34)n2)cc1` has an IC50 of 8.23 µM. `Cc1ccc2[nH]c(O)c(N=Nc3nc4ccccc4s3)c2c1` showed an IC50 of 2.48 µM. `O=C(C1=C[C@@H](c2ccc(C(F)(F)F)cc2)C[C@@H](OCc2ccc(CO)cc2)O1)N1CCN(Cc2ccccc2)CC1` showed an IC50 greater than 54 µM. In the case of `O=C(O)c1ccc(-n2cccc2/C=C2/NC(=O)N(c3cccc(Cl)c3)C2=O)cc1`, the IC50 is reported as less than 0.4 µM. `CN(C)c1ccc(NC(=O)c2ccc(COc3cccc(Cl)c3)o2)cc1` gave an IC50 of less than 0.4 µM. Work on `Nc1cccc(C2=Nc3cccc4cccc(c34)N2)c1` yielded an IC50 of less than 0.4 µM. `C(=C\c1ccco1)/c1ccc2ccccc2n1` was tested, and the IC50 was 4.18 µM. With `O/N=C1/CCCSc2ccccc21` the IC50 was greater than 54 µM. `Cc1cc(N/N=C/c2ccc(O)c(C)c2O)nc(-c2ccccc2O)n1` showed an IC50 of 3.66 µM. For `O=C(O)c1ccccc1NS(=O)(=O)c1ccc(NNC(=S)Nc2ccc(OC(F)F)cc2)c([N+](=O)[O-])c1`, the IC50 was less than 0.4 µM. `Cc1ccc(/C=c2\sc3nc(-c4ccco4)nn3c2=O)o1` showed an IC50 of 6.14 µM. With `O=C(COC(=O)c1ccc(NS(=O)(=O)c2cccs2)cc1)NCc1ccco1` the IC50 was 2.41 µM. For `CCOc1cc(/C=C2\C(=O)N(c3nc(-c4ccc(Br)cc4)cs3)N=C2c2ccccc2)ccc1O`, the IC50 was 1.65 µM. Molecule `Oc1ccccc1NCC(O)Cn1ccc2ccccc21` (stereo not drawn) has an IC50 of 5.23 µM. Molecule `CNc1ccc(Br)cc(C(=O)/C=C/c2ccc(Cl)cc2Cl)c1=O` has an IC50 of 1.41 µM. Molecule `CCc1c(C)[nH]c2ccc(OC)cc2c1=S` has an IC50 of less than 0.4 µM. `O=C1/C(=C/c2ccc(O)c(O)c2)Oc2cc(O)ccc21` gave an IC50 of 1.16 µM. `c1ccc(Nc2cccc(Nc3ccccc3)c2)cc1` showed an IC50 greater than 54 µM. With `CC(=O)NC1=C(NC2CCS(=O)(=O)C2)C(=O)c2ccccc2C1=O` (stereo not drawn) the IC50 was 2.77 µM. `O=C1NC(=S)N(C2CC2)C(=O)/C1=C/c1ccc2c(c1)CCN2CCCCl` was tested, and the IC50 was 0.728 µM. Work on `O=c1oc2ccccc2c2oc3cc(O)c(O)cc3c12` yielded an IC50 of less than 0.4 µM. `O=[N+]([O-])c1ccc2[nH]c(O)c(N=NC(=S)Nc3cccnc3)c2c1` gave an IC50 of 8.86 µM. `COc1ccc(/C=C2/SC(=S)N(c3ccc(S(=O)(=O)Nc4nccs4)cc3)C2=O)cc1` was tested, and the IC50 was 0.999 µM. For `O=C(N/N=C/c1ccc(-c2ccc(Cl)c(C(=O)O)c2)o1)c1cc2c(ccc3ccccc32)o1`, the IC50 was less than 0.4 µM. Work on `COc1cc(/C=C2\SC(=O)NC2=O)ccc1Oc1ccc([N+](=O)[O-])cc1[N+](=O)[O-]` yielded an IC50 of 3.29 µM. Molecule `CC(/C=C1\SC(=S)N(c2ccc(C(=O)O)cc2)C1=O)=C\c1ccccc1` has an IC50 of 2.81 µM. `O=C1CC(N2CCN(S(=O)(=O)c3ccccc3)CC2)C(=O)N1c1ccccc1` (stereo not drawn) gave an IC50 greater than 54 µM. Work on `Cc1ccc(-n2cccc2/C=C2/C(=N)N3C(=NC2=O)SN=C3S(C)(=O)=O)cc1Cl` yielded an IC50 of 1.1 µM. With `CN(C)S(=O)(=O)c1cccc(-c2nn(-c3ccccc3)cc2/C=C2\SC(=S)N(CC(=O)O)C2=O)c1` the IC50 was 4.28 µM. With `O=c1c(-c2c(O)cc(O)c3c(=O)cc(-c4ccc(O)cc4)oc23)c(-c2ccc(O)cc2)oc2cc(O)cc(O)c12` the IC50 was greater than 54 µM. Molecule `CCNc1ccc(Br)cc(C(=O)/C=C/c2ccc3c(c2)OCO3)c1=O` has an IC50 of 0.499 µM. For `O=C(O)c1ccc(-n2cccc2/C=N\NC(=O)c2cc3cc(Br)ccc3o2)cc1`, the IC50 was 0.915 µM. `COc1ccc(C(=O)N=c2c(C#N)cc3c(=O)n4cccc(C)c4nc3n2Cc2ccco2)cc1` gave an IC50 of 13.8 µM. `COC(=O)C1=Nc2ccccc2/C1=C\c1c(O)n(-c2ccc(Br)cc2)c(=O)[nH]c1=O` was tested, and the IC50 was 7.49 µM. `O=c1cc(-c2ccc(O)c(-c3c(O)cc(O)c4c(=O)cc(-c5ccc(O)cc5)oc34)c2)oc2cc(O)cc(O)c12` gave an IC50 of 1.78 µM.
